The text below walks through data of article PMC12652692, “Synthesis and In Vitro Anticancer Evaluation of Novel Phosphonium Derivatives of Chrysin” (International Journal of Molecular Sciences, 2025).

What all share (assay): NCI60 one-dose screen
Assay type in all cases: cell-based, human

One assay deals with HOP-92. To be noted: HOP-92, 10 μM. The protocol:
(§1) The screening results are presented in the Supplementary Materials (Table S1), where the cytotoxicity was determined for the 10 µM concentration. […] The negative numbers indicate significant decreases in the cell number. […] Compared to the reference chrysin (2), all phosphonium hybrids (3a–h) had significant antiproliferative activities. […] At the same time, it should be noted that more than 60% average reduction was also obtained in the case of the other examined conjugates (3a–h).
(§2) A detailed description of the NCI screening procedures, including the one-dose and five-dose tests, can be found in the Supplementary Materials, on the website of NCI [39], and in our previous work.
(§3) A detailed description of the NCI screening procedures can also be found on the website of NCI [39], and in our […]
(§4) All candidates were examined at first at a single high dose (10 μM) in the full NCI60 cell panel. The value reported for the one-dose test is growth relative to the no-drug control and relative to the time zero number of cells. This made possible the disclosure of both growth inhibition (numbers between 0 and 100) and lethality (numbers less than 0). For example, a value of 100 means no growth inhibition. A value of 20 would mean 80% growth inhibition. A value of 0 means no net growth over the course of the analysis. A value of −20 would mean 20% lethality. A value of −100 means all cells are dead. […]
(§5) concentration levels. The human tumor cell lines of the cancer screening panel were grown in RPMI 1640 medium containing 5% fetal bovine serum and 2 mM l-glutamine. Characteristically, cells were injected in 96-well microtiter plates in 0.1 mL at plating densities ranging from 5000 to 40,000 cells/well, depending on the doubling time of individual cell lines. After cell inoculation, the microtiter plates were incubated at 37 °C, 5% carbon dioxide, 95% air, and 100% relative humidity for 24 hours before the addition of tested compounds. After 24 hours, 2 plates of each cell line were fixed in situ with Cl3COOH (TCA), to represent a measurement of the cell population for each cell line at the time of drug addition (tz). Tested compounds were solubilized in DMSO at 400-fold the desired final maximum test concentration and stored frozen before application. In the course of the drug addition, an aliquot of frozen concentrate was thawed and diluted to twice the desired final maximum test concentration with a complete medium containing 50 μg mL−1 gentamicin. Additional four, 10-fold or ½ log serial dilutions were produced to furnish a total of five drug concentrations plus control. Aliquots of 0.1 mL of these different drug dilutions were added to the appropriate microtiter wells already containing 0.1 mL of medium, resulting in the required final drug concentrations.
(§6) Following drug addition, the plates were incubated at 37 °C, 5% carbon dioxide, 95% air, and 100% relative humidity for an additional 48 hours. For adherent cells, the test was finished by the addition of cold Cl3COOH. Cells were fixed in situ by the addition of 50 μL of cold 50% (w/v) Cl3COOH, and incubated at 4 °C for 1 hour. The supernatant was discarded, and the plates were washed with H2O (5×) and dried in air. Sulforhodamine B (SRB) solution (0.1 mL) at 0.4% (w/v) in 1% CH3COOH was added to each well, and plates were incubated at RT for 10 min. After staining, the unbound dye was removed by washing five times with 1% CH3COOH, and the plates were dried in the air. The bound stain is afterward solubilized with a 10 mM trizma base, and the absorbance is read on an automated plate reader at λ = 515 nm. Utilizing the seven absorbance measurements [time zero (tz), control growth (c), and test growth in the presence of the drug at the five concentration levels (ti)], the percentage growth was determined at each of the drug concentration levels. Growth inhibition (%) was calculated as:
(§7) [(ti − tz)/(c − tz)] × 100, for concentrations where ti ≥ tz (1) […]

For another assay, the system named is PC-3. To be noted: PC-3, 10 μM. The protocol:
as §1, §2, §3, §4, §5, §6, §7

A further assay concerns UACC-62. The conditions noted are these: UACC-62, 10 μM. The protocol: as §1, §2, §3, §4, §5, §6, §7
For the next assay, the system named is SR. The conditions noted are these: 10 μM. The protocol:
as §1, §2, §3, §4, §5, §6, §7

For a further assay, the system named is T-47D. The conditions noted are these: 10 μM. The protocol: as §1, §2, §3, §4, §5, §6, §7

Take `COc1ccc([P+](CCCCOc2cc(O)c3c(=O)cc(-c4ccccc4)oc3c2)(c2ccc(OC)cc2)c2ccc(OC)cc2)cc1` [3c]: the results for the Growth percent in the assay with HOP-92 and in the assay on PC-3 were −79.86% and −82.70%, respectively.
In the case of `Cc1ccccc1[P+](CCCCOc1cc(O)c2c(=O)cc(-c3ccccc3)oc2c1)(c1ccccc1C)c1ccccc1C` [3g], the Growth percent in the assay with HOP-92 is −98.85%; in the assay with PC-3, −97.92%; with UACC-62, −97.94%.
Regarding `O=c1cc(-c2ccccc2)oc2cc(OCCCC[P+](c3ccccc3)(c3ccccc3)c3ccccc3)cc(O)c12` [3a], the Growth percent in the assay on PC-3 is −87.34%; in the assay on SR it was −39.83%; in the assay on T-47D, −62.52%; with UACC-62, −59.51%.
`O=c1cc(-c2ccccc2)oc2cc(OCCCC[P+](C3CCCCC3)(C3CCCCC3)C3CCCCC3)cc(O)c12` [3e]: the Growth percent in the assay on HOP-92 was −75.86%; in the assay with PC-3, −70.81%.
For the molecule `COc1c(C)cc([P+](CCCCOc2cc(O)c3c(=O)cc(-c4ccccc4)oc3c2)(c2cc(C)c(OC)c(C)c2)c2cc(C)c(OC)c(C)c2)cc1C` [3f], the Growth percent in the assay on HOP-92 is on record as −68.75%; with PC-3, −76.48%; with SR it was 23.00%; with T-47D, −52.77%; in the assay with UACC-62, −80.44%.
For `O=c1cc(-c2ccccc2)oc2cc(OCCCC[P+](c3ccccc3)(c3ccccc3)c3ccccn3)cc(O)c12` [3h] the same measures were −69.74%, −35.64%, 0.35%, −49.47% and −73.54%.
For `O=c1cc(-c2ccccc2)oc2cc(O)cc(O)c12` [compound 2, 5,7-dihydroxyflavone, reference compound] the same measures were 77.93%, 93.17%, 77.87%, 101.44% and 82.24%.
Turning to `O=c1cc(-c2ccccc2)oc2cc(OCCCC[P+](c3ccc(F)cc3)(c3ccc(F)cc3)c3ccc(F)cc3)cc(O)c12` [3d], the Growth percent with SR is −36.14%; in the assay on T-47D, −53.27%; in the assay with UACC-62 it was −96.92%.
For `Cc1ccc([P+](CCCCOc2cc(O)c3c(=O)cc(-c4ccccc4)oc3c2)(c2ccc(C)cc2)c2ccc(C)cc2)cc1` [3b] the same measures were −36.14%, −52.52% and −88.32%.
